Source: US10294202B2, “Pyrrolidinones as herbicides” (FMC Corporation, priority 2013, dated 2019)

Assays:
corn = test: Test A pre-/postemergence herbicide test; format: in vivo, Zea mays; conditions: Postemergence
In short: (§1)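 Scoring was visual, relative to untreated controls, on a 0–100 scale after about 10 greenhouse days. Preemergence treatment used a directed soil spray over seeded loam/sand; postemergence treatment targeted one- to two-leaf plants of 2–10 cm.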

wheat = test: Test A pre-/postemergence herbicide test; format: in vivo, Triticum aestivum; conditions: Postemergence
In short: as §1

giant foxtail = test: Test A pre-/postemergence herbicide test; format: in vivo, Setaria faberii
In short: as §1

ryegrass, Italian = test: Test A pre-/postemergence herbicide test; format: in vivo, Lolium multiflorum
In short: as §1

ragweed = test: Test A pre-/postemergence herbicide test; format: in vivo, Ambrosia elatior
In short: as §1

galium = test: Test A postemergence herbicide test; format: in vivo, Galium aparine
In short: (§2)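 Injury was rated visually about 10 days after treatment on a 0 (no effect) to 100 (complete control) scale, compared with untreated plants. Test chemicals were sprayed postemergence onto greenhouse plants 2–10 cm high at one to two leaves, grown in a loam–sand blend.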

barnyardgrass [1] = test: Test B flooded paddy test; format: in vivo, Echinochloa crus-galli; conditions: 500 g ai/ha, Flood; scale of 0 to 100 where 0 is no effect and 100 is complete control
In short: (§3)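 Paddy-water application at a 3 cm flood, young plants having two leaves. Water level maintained; greenhouse, 13–15 days; visual 0–100 control rating.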

barnyardgrass [2] = test: Test A pre-/postemergence herbicide test; format: in vivo, Echinochloa crus-galli
In short: as §1

kochia = test: Test A pre-/postemergence herbicide test; format: in vivo, Kochia scoparia
In short: as §1

pigweed = test: Test A pre-/postemergence herbicide test; format: in vivo, Amaranthus retroflexus
In short: as §1

blackgrass = test: Test A postemergence herbicide test; format: in vivo, Alopecurus myosuroides
In short: as §2

rice = test: Test B flooded paddy test; format: in vivo, Oryza sativa; conditions: 500 g ai/ha, Flood; scale of 0 to 100 where 0 is no effect and 100 is complete control
In short: as §3

sedge, umbrella = test: Test B flooded paddy test; format: in vivo, Cyperus difformis; conditions: 500 g ai/ha, Flood; scale of 0 to 100 where 0 is no effect and 100 is complete control
In short: as §3

ducksalad = test: Test B flooded paddy test; format: in vivo, Heteranthera limosa; conditions: 500 g ai/ha, Flood; scale of 0 to 100 where 0 is no effect and 100 is complete control
In short: as §3

[3] = 125 g ai/ha, visual rating on 0 to 100 scale (0 no effect, 100 complete control), approx. 10 days
[4] = 500 g ai/ha, 0 to 100 scale (0 no effect, 100 complete control)
[5] = Postemergence, 125 g ai/ha, visual rating on 0 to 100 scale (0 no effect, 100 complete control), approx. 10 days
[6] = Postemergence, 500 g ai/ha, 0 to 100 scale (0 no effect, 100 complete control)
[7] = Preemergence, 125 g ai/ha, 0 to 100 scale where 0 is no effect and 100 is complete control
[8] = Preemergence, 500 g ai/ha, visual rating on 0 to 100 scale (0 no effect, 100 complete control)

| SMILES | Plant response rating, Corn (corn; [3]) | Plant response rating, Corn (corn; [4]) | Plant response rating, Wheat (wheat; [3]) | Plant response rating, Wheat (wheat; [4]) | Plant response rating, Foxtail, Giant (giant foxtail; [5]) | Plant response rating, Foxtail, Giant (giant foxtail; [6]) | Plant response rating, Foxtail, Giant (giant foxtail; [7]) | Foxtail, Giant plant response rating (giant foxtail; [8]) | Plant response rating, Ryegrass, Italian (ryegrass, Italian; [5]) | Plant response rating, Ryegrass, Italian (ryegrass, Italian; [6]) | Plant response rating, Ryegrass, Italian (ryegrass, Italian; [7]) | Ryegrass, Italian plant response rating (ryegrass, Italian; [8]) | Plant response rating, Ragweed (ragweed; [5]) | Plant response rating, Ragweed (ragweed; [6]) | Plant response rating, Ragweed (ragweed; [7]) | Ragweed plant response rating (ragweed; [8]) | Plant response rating, Galium (galium; [3]) | Plant response rating, Galium (galium; [4]) | Plant response rating, Barnyardgrass (barnyardgrass [1]) | Plant response rating, Barnyardgrass (barnyardgrass [2]; [5]) | also measured |
| --- | --- | --- | --- | --- | --- | --- | --- | --- | --- | --- | --- | --- | --- | --- | --- | --- | --- | --- | --- | --- | --- |
| O=C1NCC(c2ccc(SC(F)(F)F)cc2)C1C(=O)Nc1ccccc1F (stereo not drawn) [Compound 321] | 0 | 0 | 0 | 0 | 0 | 50 | 0 | 50 | 0 | 0 | 0 | 0 | 0 | 0 | 0 | 0 | 0 | 0 | 20 | 0 | Plant response rating, Barnyardgrass (barnyardgrass [2]; [6]): 50; Plant response rating, Barnyardgrass (barnyardgrass [2]; [7]): 0; Barnyardgrass plant response rating (barnyardgrass [2]; [8]): 30; Plant response rating, Kochia (kochia; [5]): 0; Plant response rating, Kochia (kochia; [6]): 0; Plant response rating, Kochia (kochia; [7]): 0; Kochia plant response rating (kochia; [8]): 0; Plant response rating, Pigweed (pigweed; [5]): 0; Plant response rating, Pigweed (pigweed; [6]): 0; Plant response rating, Pigweed (pigweed; [7]): 0; Pigweed plant response rating (pigweed; [8]): 0; Plant response rating, Blackgrass (blackgrass; [3]): 0; Plant response rating, Blackgrass (blackgrass; [4]): 0; Plant response rating, Rice (rice): 15; Plant response rating, Sedge, Umbrella (sedge, umbrella): 0; Plant response rating, Ducksalad (ducksalad): 40 |
| O=C1NCC(c2ccc(SC(F)(F)F)cc2)C1C(=O)Nc1ccc(F)c(F)c1F (stereo not drawn) [Compound 322] | 0 | 20 | 0 | 0 | 0 | 60 | 0 | 70 | 0 | 0 | 0 | 0 | 0 | 0 | 0 | 0 | 0 | 0 | 0 | 0 | Plant response rating, Barnyardgrass (barnyardgrass [2]; [6]): 60; Plant response rating, Barnyardgrass (barnyardgrass [2]; [7]): 0; Barnyardgrass plant response rating (barnyardgrass [2]; [8]): 40; Plant response rating, Kochia (kochia; [5]): 0; Plant response rating, Kochia (kochia; [6]): 0; Plant response rating, Kochia (kochia; [7]): 0; Kochia plant response rating (kochia; [8]): 0; Plant response rating, Pigweed (pigweed; [5]): 0; Plant response rating, Pigweed (pigweed; [6]): 0; Plant response rating, Pigweed (pigweed; [7]): 0; Pigweed plant response rating (pigweed; [8]): 0; Plant response rating, Blackgrass (blackgrass; [3]): 0; Plant response rating, Blackgrass (blackgrass; [4]): 0; Plant response rating, Rice (rice): 0; Plant response rating, Sedge, Umbrella (sedge, umbrella): 0; Plant response rating, Ducksalad (ducksalad): 100 |
| O=C1NCC(c2cccc(-n3ccc(C(F)(F)F)n3)c2)C1C(=O)Nc1cccc(F)c1F (stereo not drawn) [Compound 326] | 0 | 0 | 0 | 0 | 20 | 50 | 50 | 60 | 0 | 0 | 0 | 40 | 0 | 0 | 0 | 0 | 0 | 0 | 0 | 0 | Plant response rating, Barnyardgrass (barnyardgrass [2]; [6]): 20; Plant response rating, Barnyardgrass (barnyardgrass [2]; [7]): 0; Barnyardgrass plant response rating (barnyardgrass [2]; [8]): 30; Plant response rating, Kochia (kochia; [5]): 0; Plant response rating, Kochia (kochia; [6]): 30; Plant response rating, Kochia (kochia; [7]): 40; Kochia plant response rating (kochia; [8]): 50; Plant response rating, Pigweed (pigweed; [5]): 0; Plant response rating, Pigweed (pigweed; [6]): 0; Plant response rating, Pigweed (pigweed; [7]): 0; Pigweed plant response rating (pigweed; [8]): 0; Plant response rating, Blackgrass (blackgrass; [3]): 0; Plant response rating, Blackgrass (blackgrass; [4]): 0; Plant response rating, Rice (rice): 0; Plant response rating, Sedge, Umbrella (sedge, umbrella): 0; Plant response rating, Ducksalad (ducksalad): 0 |
| O=C1NCC(c2cccc(I)c2)C1C(=O)Nc1cccc(F)c1F (stereo not drawn) [Compound 327] | 0 | 30 | 0 | 20 | 40 | 80 | 80 | 90 | 20 | 20 | 40 | 40 | 0 | 20 | 20 | 30 | 40 | 60 | 0 | 40 | Plant response rating, Barnyardgrass (barnyardgrass [2]; [6]): 80; Plant response rating, Barnyardgrass (barnyardgrass [2]; [7]): 70; Barnyardgrass plant response rating (barnyardgrass [2]; [8]): 80; Plant response rating, Kochia (kochia; [5]): 30; Plant response rating, Kochia (kochia; [6]): 40; Plant response rating, Kochia (kochia; [7]): 30; Kochia plant response rating (kochia; [8]): 70; Plant response rating, Pigweed (pigweed; [5]): 0; Plant response rating, Pigweed (pigweed; [6]): 20; Plant response rating, Pigweed (pigweed; [7]): 0; Pigweed plant response rating (pigweed; [8]): 20; Plant response rating, Blackgrass (blackgrass; [3]): 30; Plant response rating, Blackgrass (blackgrass; [4]): 40; Plant response rating, Rice (rice): 0; Plant response rating, Sedge, Umbrella (sedge, umbrella): 0; Plant response rating, Ducksalad (ducksalad): 60 |
